This is an account of results in patent publication US10077436B2, “Beta-glucosidase enzymes for increased biomass saccharification” (Edeniq, Inc., priority 2013, dated 2018).

In general, Ki refers to a dissociation constant, usually derived from enzyme kinetics or from competition with a known ligand. Read a high Ki as lower affinity.

This test concerns the target T1, Aspergillus niger beta-glucosidase (CAB75696.1, SEQ ID NO:2) improved variant yEdQ885-BG (Aspergillus niger, UniProt Q9P8F4, Y363C/Y375F/Y610F).
T1 construct: strain yEdQ885, BG acid/base mutant #8
T1 sequence (Q9P8F4 20-860 Y363C/Y375F/Y610F): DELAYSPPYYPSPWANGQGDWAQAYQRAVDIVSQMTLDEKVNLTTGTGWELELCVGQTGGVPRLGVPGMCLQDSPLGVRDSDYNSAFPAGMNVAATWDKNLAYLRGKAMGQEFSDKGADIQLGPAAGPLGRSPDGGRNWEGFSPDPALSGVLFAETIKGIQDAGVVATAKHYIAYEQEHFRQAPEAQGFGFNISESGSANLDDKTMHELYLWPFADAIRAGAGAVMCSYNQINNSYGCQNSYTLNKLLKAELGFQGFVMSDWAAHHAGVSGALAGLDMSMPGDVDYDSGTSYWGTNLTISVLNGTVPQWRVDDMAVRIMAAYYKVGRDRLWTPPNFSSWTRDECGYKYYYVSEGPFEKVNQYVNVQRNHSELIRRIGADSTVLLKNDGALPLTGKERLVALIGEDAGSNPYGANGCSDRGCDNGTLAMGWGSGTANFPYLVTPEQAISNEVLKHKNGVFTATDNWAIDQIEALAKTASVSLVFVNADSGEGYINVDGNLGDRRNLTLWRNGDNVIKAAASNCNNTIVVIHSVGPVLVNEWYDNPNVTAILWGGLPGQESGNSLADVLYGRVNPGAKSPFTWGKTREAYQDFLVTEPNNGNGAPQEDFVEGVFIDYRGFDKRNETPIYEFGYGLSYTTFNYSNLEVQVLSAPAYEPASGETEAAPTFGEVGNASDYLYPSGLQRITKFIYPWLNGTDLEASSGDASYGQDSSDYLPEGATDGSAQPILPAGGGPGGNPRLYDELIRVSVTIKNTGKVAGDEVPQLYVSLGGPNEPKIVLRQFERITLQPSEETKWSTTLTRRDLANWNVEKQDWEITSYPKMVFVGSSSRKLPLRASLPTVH
The experiment in a line: BG kinetics, cellobiose hydrolysis assay (HPLC) with glucose as competitive inhibitor, yEdQ885-BG. It counts as biochemical. The source says:
The beta-glucosidase (BG) gene from Aspergillus niger (Accession #CAB75696.1) was integrated into the TR3 yeast background at the T4U3 genomic site.
High resolution enzyme assays and kinetic testing comparing the beta-glucosidases described herein and commercial enzyme preparations were pursued to more clearly quantify differences in mutant BG enzymes compared to the wild type BG enzyme. Based on data presented herein, BG mutant YEdQ885 was selected for further analysis and compared to the BG activity present in commercial preparations of SP188 (Novozymes) and Accellerase® BG (DuPont) as well as wild type BG.
The kinetic properties of beta glucosidase are important for cellulosic hydrolysis, since in commercial situations a wide range of substrate concentrations and different product inhibition conditions will be encountered. In this example, a Michaelis-Menten kinetics model was used to describe BG kinetics. To determine these kinetic properties, BG activity assays using standard substrates pNPG and cellobiose were employed. yEdQ745-BG (wild type) and yEdQ885-BG (improved), were compared with two commercial BGs, A-BG (Accellerase®) BG from Dupont) and S-BG (Novozymes SP188 from Sigma). […]

`OC[C@H]1OC(O)[C@H](O)[C@@H](O)[C@@H]1O` (some centres unmarked) [glucose] showed a Ki of 1110 ± 190 µM. Besides, the Km/Ki (inhibitor influence, Km for cellobiose / Ki for glucose, pH 4.8, 50° C.) was 1.31.
